Article PMC5681751 (Angewandte Chemie (International ed. in English), 2017)

Molecular target: T1, CblC (Homo sapiens, UniProt Q9Y4U1)
T1 sequence (Q9Y4U1 1-282): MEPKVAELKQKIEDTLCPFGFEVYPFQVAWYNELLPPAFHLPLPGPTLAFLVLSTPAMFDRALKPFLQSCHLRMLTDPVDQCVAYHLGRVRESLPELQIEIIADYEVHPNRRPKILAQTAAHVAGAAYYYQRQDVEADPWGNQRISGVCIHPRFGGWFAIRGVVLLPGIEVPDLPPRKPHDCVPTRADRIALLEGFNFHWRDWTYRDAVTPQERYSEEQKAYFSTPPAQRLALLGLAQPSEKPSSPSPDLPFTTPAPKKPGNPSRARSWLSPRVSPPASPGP
Test: isothermal titration calorimetry
Conditions: in the presence of glutathione (GSH); base-off binding

PhEtyCbl [compound 2]
Kd: 30 nM
